Source: patent publication US11491245B2, “Gadolinium chelate compounds for use in magnetic resonance imaging” (BAYER PHARMA AKTIENGESELLSCHAFT, priority 2015, dated 2022)
Where two headings read alike, the source gives them in different places.

How the values were obtained:
[1] = 37° C., cited from earlier work
[2] = Gadolinium release after the addition of zinc and phosphate (transmetallation); details: phosphate buffer pH 7.00, 2.5 mmol/L gadolinium complex, 2.5 mmol/L ZnCl2, 37° C., up to 72 h, FIG. 2
Procedure: The technique is based on measurement of the evolution of the water proton paramagnetic longitudinal relaxation rate in phosphate buffer (pH 7.00, 26 mmol/L, KH2PO4 Merck, Hessen, Germany) containing 2.5 mmol/L gadolinium complex and 2.5 mmol/L ZnCl2 Sigma-Aldrich, Munich, Germany). […] The mixture was vigorously stirred, and 300 μL were taken out for the relaxometric study at 0 min, 60 min, 120 min, 3 h, 4 h, 5 h, 24 h, 48 h and 72 h. The measurements were performed on a MiniSpec mq60 spectrometer (Bruker Analytik, Karlsruhe, Germany) at 60 MHz and 37° C.

[3] = Whole body imaging (dynamic MRI and tissue Gd concentration); assay type: in vivo, male New Zealand white rabbits; details: rabbits, tissues 30 min p.i., FIGS. 8A and 8B
Procedure: The study was performed with a clinical whole body MRI equipped with body spine coil, abdomen flex coil, neck coil (1.5 T Magnetom Avanto, Siemens Healthcare, Erlangen, Germany). The study was done using male New Zealand white rabbits (weight 2.3-3.0 kg, n=8, Charles River Kisslegg). All animals were initially anesthetized using a body weight-adjusted intramuscular injection of a mixture (1+2) of xylazine hydrochloride (20 mg/mL, Rompun 2%, Bayer Vital GmbH, Leverkusen, Germany) and ketamine hydrochloride (100 mg/mL, Ketavet, Pfizer, Pharmacia GmbH, Berlin, Germany) using 1 mL/kg body weight. The continuous anesthesia of the intubated animals (endotracheal tube, Rueschelit Super Safe Clear, cuff 3.0 mm, Willy Ruesch AG, Kernen, Germany) was achieved by the intravenous injection of 0.9 mg propofol per kilogram per hour (10 mg/mL, Propofol-Lipuro 1%, B. Braun Melsungen AG, Melsungen, Germany). The continuous intravenous injection was performed using a MR infusion system (Continuum MR Infusion System, Medrad Europe B. V., A E Beek, Germany). The tracheal respiration (SV 900C, Maquet, Rastatt, Germany) was performed with 55% oxygen, forty breaths per minute and a breathing volume of 7 mL per kilogram body weight per minute.
Dynamic MRI measurements up to 22 min post injection with subsequent quantitative signal analysis (Siemens Mean Curve software (SYNGO Task Card, Siemens Healthcare, Erlangen, Germany), were performed for three different regions head and neck (brain, tongue, chops muscle, neck muscle), abdomen (spleen, liver, blood) and pelvis (extremity muscle). For the three different slice groups a 3D T1-weighted Vibe sequence was used (TR=4.74 ms, TE=2.38, flip=10°, 1:29 min). The dynamic measurements of the three slice groups (Head/Neck: 1:29 min, Abdomen: 0:49 min, Pelvis: 1:16 min) were done up to 22 min post injection: 1. Head/Neck: baseline, 1.4, 5.2, 8.9, 12.8, 16.5, 20.4 min, 2. Abdomen: baseline, 0.5, 4.3, 8.1, 11.9, 15.7, 19.5 min and 3. Pelvis: baseline, 2.9, 6.7, 10.5, 14.4, 18.1, 22.0 min. At 30 min post injection the animals were sacrificed and the Gd concentrations were measured using Inductively Coupled Plasma Mass Spectroscopy (ICP-MS Agilent 7500a, Waldbronn, Germany) in the following tissue samples: blood, brain, tongue, liver and extremity muscle. A quantitative image evaluation was performed for the 30 min time point p.i. due to the combination of the quantitative ICP-MS Gadolinium concentrations and the MRI region-of-interest analysis.

[4] = Pharmacokinetic parameters in rats (blood plasma kinetic); assay type: in vivo, male rats (Han-Wistar); details: male rats, 0.1 mmol Gd/kg bolus tail vein, mean
Procedure: Pharmacokinetic parameters of the compound of Example 3 were determined in male rats (Han-Wistar, 220-230 g, n=3). The compound was administered as a sterile aqueous solution (52.5 mmol Gd/L) as a bolus in the tail vein of the animals. The dose was 0.1 mmol Gd/kg. Blood was sampled 1, 3, 5, 10, 15, 30, 60, 90, 120, 240, 360, 480 and 1440 min post injection and the Gd concentration was determined by Inductively Coupled Plasma Mass Spectroscopy (ICP-MS Agilent 7500a, Waldbronn, Germany). The blood level was converted to plasma concentrations by division by 0.625 (plasma fraction of rat blood, assuming strictly extracellular distribution). As a control, 3 animals were treated in the same way with Gadovist®, a low molecular weight contrast agent.
The fit of the obtained data to a three compartment model (Phoenix—WinNonlin) yielded the pharmacokinetic parameters which are shown in Table 3.

stability against transmetallation (relative longitudinal relaxation rate R1p(t)/R1p(0) versus time) [2]: high stability
AUC∞ Area under the curve (to infinity) [4]: 11500 µmol·min/L
MRT Mean residence time [4]: 30.1 min
V1 + V2 Volume, compartments V1 + V2 [4]: 0.25 L/kg
V2 Volume, compartment V2 [4]: 0.12 L/kg
Vc (V1) Volume, central compartment V1 [4]: 0.14 L/kg
Vd,ss Volume of distribution at steady state [4]: 0.28 L/kg
t½ α Half-life, compartment V1 ([4]; three compartment model): 1.6 min
t½ β Half-life, compartment V2 ([4]; three compartment model): 20.5 min
t½ γ Half-life, compartment V3 ([4]; three compartment model): 232 min
SMILES: O=C([O-])CN1CCN(CC(=O)[O-])CCN([C@H](CO)[C@H](O)CO)CCN(CC(=O)[O-])CC1.[Gd+3] (racemic) [Reference compound 1, gadobutrol, reference compound]
r1 human plasma ([1]; reference compounds (marked ^), plasma, 3.0 T, average ± standard deviation): 5.0 ± 0.3 L/mmol/s
r1 water ([1]; reference compounds (marked ^), 3.0 T, average ± standard deviation): 3.2 ± 0.3 L/mmol/s
r1 FBS ([1]; reference compounds, bovine plasma, 1.5 T, from Rohrer et al.): 5.2 L/mmol/s
r1 water ([1]; reference compounds, 1.5 T, from Rohrer et al.): 3.3 L/mmol/s
slope of the linear regression between tissue gadolinium concentration and MRI signal change [3]: 1.0
